{"source": "patent US11963960B2", "about": "(Flash Therapeutics, LLC, priority 2020, dated 2024)", "data": [{"molecular_target": "N-terminally GST-tagged HCK (75-526) (Homo sapiens (Human), UniProt P08631)", "sequence (P08631 75-526)": "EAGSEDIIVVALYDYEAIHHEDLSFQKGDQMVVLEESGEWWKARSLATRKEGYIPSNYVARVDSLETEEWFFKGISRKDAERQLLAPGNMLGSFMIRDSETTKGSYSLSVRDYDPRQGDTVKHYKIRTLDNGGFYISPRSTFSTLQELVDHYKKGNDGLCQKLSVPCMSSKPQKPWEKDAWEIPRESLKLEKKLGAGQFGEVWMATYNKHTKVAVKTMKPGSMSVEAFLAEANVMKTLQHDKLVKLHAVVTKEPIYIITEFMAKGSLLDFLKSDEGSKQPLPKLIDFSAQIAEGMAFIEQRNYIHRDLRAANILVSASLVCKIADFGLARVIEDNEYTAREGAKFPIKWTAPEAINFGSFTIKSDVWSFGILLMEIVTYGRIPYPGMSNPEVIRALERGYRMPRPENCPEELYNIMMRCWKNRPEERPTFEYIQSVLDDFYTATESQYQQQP", "test": "HCK Kinase Assay (ProFluor Src-Family Kinase Assay)", "format": "biochemical", "details": "not given", "description": "(§1) The procedure of ProFluor Src-Family Kinase Assay (Promega, Cat. No. V1271) was then followed. To the reaction was added 5 μL Protease solution and the mixture was incubated for 60 minutes at room temperature (22-25° C.), followed by 5 μL Stabilizer solution. The fluorescence signal was read on an Envision multilabel plate reader (Perkin Elmer). The R110 was then read at an excitation wavelength of 485 nm and an emission wavelength of 530 nm. The AMC signal was read at an excitation wavelength of 355 nm and an emission wavelength of 460 nm.", "units": {"IC50": "µM"}, "values": [{"compound": "[2H]C([2H])([2H])N1CCN([C@H]2CC[C@@H](n3cc(-c4ccc(Oc5ccccc5)cc4)c4c(N)ncnc43)CC2)CC1", "note": "(single isomer, unassigned) [Example 4, 7-((cis)-4-(4-(trideuteriomethyl)piperazin-1-yl)cyclohexyl)-5-(4-phenoxyphenyl)-7H-pyrrolo[2,3-d]pyrimidin-4-amine]", "IC50": "0.25 to 10"}, {"compound": "[2H]C([2H])([2H])N1C([2H])([2H])C([2H])([2H])N([C@H]2CC[C@H](n3cc(-c4ccc(Oc5ccccc5)cc4)c4c(N)ncnc43)CC2)C([2H])([2H])C1([2H])[2H]", "note": "(single isomer, unassigned) [Example 5, 7-((trans)-4-(4-d3-methyl-d8-piperazin-1-yl)cyclohexyl)-5-(4-phenoxyphenyl)-7H-pyrrolo[2,3-d]pyrimidin-4-amine]", "IC50": "0.25 to 10"}]}, {"molecular_target": "N-terminally GST-tagged HCK (75-526) (Homo sapiens (Human), UniProt P08631)", "test": "HCK Kinase Assay (ProFluor Src-Family Kinase Assay)", "format": "biochemical", "details": "HCK inhibitory activity, 50 μM ATP; read-out: HCK Activity", "description": "as §1", "units": {"IC50": "µM"}, "values": [{"compound": "CC(=O)NN1CCN([C@H]2CC[C@@H](n3cc(-c4ccc(Oc5ccccc5)cc4)c4c(N)ncnc43)CC2)CC1", "note": "[Example 41, N-(4-((cis)-4-(4-amino-5-(4-phenoxyphenyl)-7H-pyrrolo[2,3-d]pyrimidin-7-yl)cyclohexyl)piperazin-1-yl)acetamide]", "IC50": "< 0.05"}, {"compound": "C[C@H]1CC(N2CCC(n3cc(-c4ccc(Oc5ccccc5)cc4)c4c(N)ncnc43)CC2)CCN1", "note": "(stereo partly drawn) [Example 154, 7-((2′S)-2′-methyl-[1,4′-bipiperidin]-4-yl)-5-(4-phenoxyphenyl)-7H-pyrrolo[2,3-d]pyrimidin-4-amine]", "IC50": "< 0.05"}, {"compound": "C[C@H]1CC(N2CCC(n3cc(-c4ccc(NC(=O)Nc5cc(C(C)(C)C)on5)cc4)c4c(N)ncnc43)CC2)CCN1", "note": "(stereo partly drawn) [Example 156, 1-(4-(4-amino-7-((2′S)-2′-methyl-[1,4′-bipiperidin]-4-yl)-7H-pyrrolo[2,3-d]pyrimidin-5-yl)phenyl)-3-(5-(tert-butyl)isoxazol-3-yl)urea]", "IC50": "< 0.05"}, {"compound": "CNC(=O)CC1(NC)CCC(n2cc(-c3ccc(Oc4ccccc4)cc3)c3c(N)ncnc32)CC1", "note": "(stereo not drawn) [Example 98, 2-(4-(4-amino-5-(4-phenoxyphenyl)-7H-pyrrolo[2,3-d]pyrimidin-7-yl)-1-(methylamino)cyclohexyl)-N-methylacetamide]", "IC50": "< 0.05"}, {"compound": "Nc1ncnc2c1c(-c1ccc(Oc3ccccc3)cc1)cn2[C@H]1CC[C@@H](N2CCC[C@H](N)C2)CC1", "note": "[Example 57, 7-((cis)-4-((S)-3-aminopiperidin-1-yl)cyclohexyl)-5-(4-phenoxyphenyl)-7H-pyrrolo[2,3-d]pyrimidin-4-amine]", "IC50": "< 0.05"}, {"compound": "Nc1ncnc2c1c(-c1ccc(Oc3ccccc3)cc1)cn2[C@H]1CC[C@@H](N2CCS(=O)(=O)CC2)CC1", "note": "[Example 66, 4-((cis)-4-(4-amino-5-(4-phenoxyphenyl)-7H-pyrrolo[2,3-d]pyrimidin-7-yl)cyclohexyl)thiomorpholine 1,1-dioxide]", "IC50": "0.05 to 0.25"}, {"compound": "CC1(C)CN([C@H]2CC[C@H](n3nc(-c4ccc(Oc5ccccc5)cc4F)c4c(N)ncnc43)CC2)CCN1", "note": "[Example 28, 1-((trans)-4-(3,3-dimethylpiperazin-1-yl)cyclohexyl)-3-(2-fluoro-4-phenoxyphenyl)-1H-pyrazolo[3,4-d]pyrimidin-4-amine]", "IC50": "0.05 to 0.25"}, {"compound": "Nc1ncnc2c1c(-c1ccc(Oc3ccccc3)cc1)cn2[C@H]1CC[C@H](N2CCC3(CCNC3)C2)CC1", "note": "(relative stereo) [Example 136, 7-((trans)-4-(2,7-diazaspiro[4.4]nonan-2-yl)cyclohexyl)-5-(4-phenoxyphenyl)-7H-pyrrolo[2,3-d]pyrimidin-4-amine]", "IC50": "0.05 to 0.25"}, {"compound": "CN1CCN([C@H]2CC[C@H](n3cc(-c4ccc(Oc5ccccc5)cc4)c4c(N)ncnc43)CC2)CC1C(=O)O", "note": "(stereo partly drawn) [Example 34, 4-((trans)-4-(4-amino-5-(4-phenoxyphenyl)-7H-pyrrolo[2,3-d]pyrimidin-7-yl)cyclohexyl)-1-methylpiperazine-2-carboxylic acid]", "IC50": "< 0.05"}, {"compound": "CN1CCN([C@H]2CC[C@@H](c3nc(-c4ccc(Oc5ccccc5)cc4F)c4c(N)ncnn43)CC2)CC1", "note": "[Example 164, 5-(2-Fluoro-4-phenoxyphenyl)-7-((cis)-4-(4-methylpiperazin-1-yl)cyclohexyl)imidazo[5,1-f][1,2,4]triazin-4-amine]", "IC50": "0.05 to 0.25"}, {"compound": "Nc1ncnc2c1c(-c1ccc(Oc3ccccc3)cc1F)nn2[C@H]1CC[C@@H](N2CCN(CCO)CC2)CC1", "note": "[Example 11, 2-(4-((cis)-4-(4-amino-3-(2-fluoro-4-phenoxyphenyl)-1H-pyrazolo[3,4-d]pyrimidin-1-yl)cyclohexyl)piperazin-1-yl)ethanol]", "IC50": "0.05 to 0.25"}, {"compound": "Nc1ncn([C@H]2CC[C@@H](n3cc(-c4ccc(Oc5ccccc5)cc4)c4c(N)ncnc43)CC2)n1", "note": "[Example 82, 7-((cis)-4-(3-amino-1H-1,2,4-triazol-1-yl)cyclohexyl)-5-(4-phenoxyphenyl)-7H-pyrrolo[2,3-d]pyrimidin-4-amine]", "IC50": "< 0.05"}, {"compound": "C[C@H]1CN([C@H]2CC[C@H](c3cc(-c4ccc(Oc5ccccc5)cc4)c4c(N)ncnn43)CC2)CCN1", "note": "[Example 169, 7-((trans)-4-((S)-3-Methylpiperazin-1-yl)cyclohexyl)-5-(4-phenoxyphenyl)pyrrolo[2,1-f][1,2,4]triazin-4-amine]", "IC50": "< 0.05"}, {"compound": "COc1cc(-c2nn([C@H]3CC[C@H](N4CCN(C)CC4)CC3)c3ncnc(N)c23)ccc1NC(=O)Nc1cc(C(C)(C)C)on1", "note": "[Example 123, 1-(4-(4-amino-1-((trans)-4-(4-methylpiperazin-1-yl)cyclohexyl)-1H-pyrazolo[3,4-d]pyrimidin-3-yl)-2-methoxyphenyl)-3-(5-(tert-butyl)isoxazol-3-yl)urea]", "IC50": "< 0.05"}, {"compound": "Nc1ncnc2c1c(-c1ccc(Oc3ccccc3)cc1)cn2[C@H]1CC[C@@H](N2CCN3CCC[C@H]3C2)CC1", "note": "[Example 47, 7-((cis)-4-((S)-hexahydropyrrolo[1,2-a]pyrazin-2(1H)-yl)cyclohexyl)-5-(4-phenoxyphenyl)-7H-pyrrolo[2,3-d]pyrimidin-4-amine]", "IC50": "0.05 to 0.25"}, {"compound": "Nc1ncnc2c1c(-c1ccc(Oc3ccccc3)cc1)cn2[C@H]1CC[C@H](N2CCN3CCCC3C2)CC1", "note": "(stereo partly drawn) [Example 44, 7-((trans)-4-(hexahydropyrrolo[1,2-a]pyrazin-2(1H)-yl)cyclohexyl)-5-(4-phenoxyphenyl)-7H-pyrrolo[2,3-d]pyrimidin-4-amine]", "IC50": "< 0.05"}, {"compound": "CCN1CCC(N2CCC(n3nc(-c4ccc(Oc5ccccc5)cc4F)c4c(N)ncnc43)CC2)CC1", "note": "[Example 152, 1-(1′-ethyl-[1,4′-bipiperidin]-4-yl)-3-(2-fluoro-4-phenoxyphenyl)-1H-pyrazolo[3,4-d]pyrimidin-4-amine]", "IC50": "< 0.05"}, {"compound": "CN1CC2(C1)CN([C@H]1CC[C@H](n3cc(-c4ccc(Oc5ccccc5)cc4)c4c(N)ncnc43)CC1)C2", "note": "[Example 79, 7-((trans)-4-(6-methyl-2,6-diazaspiro[3.3]heptan-2-yl)cyclohexyl)-5-(4-phenoxyphenyl)-7H-pyrrolo[2,3-d]pyrimidin-4-amine]", "IC50": "0.05 to 0.25"}, {"compound": "CN1CCN(C2CCC(n3nc(-c4ccc(Oc5ccccc5)cc4F)c4c(N)ncnc43)C2)CC1", "note": "(stereo not drawn) [Example 135]", "IC50": "0.05 to 0.25"}, {"compound": "C[C@@H]1CN([C@H]2CC[C@@H](n3cc(-c4ccc(Oc5ccccc5)cc4)c4c(N)ncnc43)CC2)CCN1", "note": "[Example 13, 7-((cis)-4-((R)-3-methylpiperazin-1-yl)cyclohexyl)-5-(4-phenoxyphenyl)-7H-pyrrolo[2,3-d]pyrimidin-4-amine]", "IC50": "< 0.05"}, {"compound": "Nc1ncnc2c1c(-c1ccc(Oc3ccccc3)cc1)cn2[C@H]1CC[C@H](N2CCN3C(=O)CCC3C2)CC1", "note": "(stereo partly drawn) [Example 42, 2-((trans)-4-(4-amino-5-(4-phenoxyphenyl)-7H-pyrrolo[2,3-d]pyrimidin-7-yl)cyclohexyl)hexahydropyrrolo[1,2-a]pyrazin-6(2H)-one]", "IC50": "0.05 to 0.25"}, {"compound": "Nc1ncnc2c1c(-c1ccc(Oc3ccccc3)cc1)cn2[C@H]1CC[C@@H](N2CCN3CCC[C@@H]3C2)CC1", "note": "[Example 49, 7-((cis)-4-((R)-hexahydropyrrolo[1,2-a]pyrazin-2(1H)-yl)cyclohexyl)-5-(4-phenoxyphenyl)-7H-pyrrolo[2,3-d]pyrimidin-4-amine]", "IC50": "< 0.05"}, {"compound": "COc1cc(-c2cn(C3CCN(C4CCNCC4)CC3)c3ncnc(N)c23)ccc1Oc1ccccc1", "note": "[Example 150, 7-([1,4′-bipiperidin]-4-yl)-5-(3-methoxy-4-phenoxyphenyl)-7H-pyrrolo[2,3-d]pyrimidin-4-amine]", "IC50": "< 0.05"}, {"compound": "CCc1cc(NC(=O)Nc2ccc(-c3cn([C@H]4CC[C@H](N5CCN(C)CC5)CC4)c4ncnc(N)c34)cc2)on1", "note": "[Example 118, 1-(4-(4-amino-7-((trans)-4-(4-methylpiperazin-1-yl)cyclohexyl)-7H-pyrrolo[2,3-d]pyrimidin-5-yl)phenyl)-3-(3-ethylisoxazol-5-yl)urea]", "IC50": "0.05 to 0.25"}, {"compound": "Nc1ncnc2c1c(-c1ccc(Oc3ccccc3)cc1)cn2[C@H]1CC[C@@H](N2CCC[C@@H](N)C2)CC1", "note": "[Example 58, 7-((cis)-4-((R)-3-aminopiperidin-1-yl)cyclohexyl)-5-(4-phenoxyphenyl)-7H-pyrrolo[2,3-d]pyrimidin-4-amine]", "IC50": "0.05 to 0.25"}, {"compound": "Nc1ncnc2c1c(-c1ccc(Oc3ccccc3)cc1)cn2[C@H]1CC[C@H](N2CCCC(N)C2)CC1", "note": "(stereo partly drawn) [Example 54, 7-((trans)-4-(3-aminopiperidin-1-yl)cyclohexyl)-5-(4-phenoxyphenyl)-7H-pyrrolo[2,3-d]pyrimidin-4-amine]", "IC50": "< 0.05"}, {"compound": "Nc1ncnc2c1c(-c1ccc(Oc3ccccc3)cc1)cn2[C@H]1CC[C@@H](N2CCN3C(=O)CCC3C2)CC1", "note": "(stereo partly drawn) [Example 43, 2-((cis)-4-(4-amino-5-(4-phenoxyphenyl)-7H-pyrrolo[2,3-d]pyrimidin-7-yl)cyclohexyl)hexahydropyrrolo[1,2-a]pyrazin-6(2H)-one]", "IC50": "< 0.05"}, {"compound": "CCOC(=O)C1CC12CCC(n1cc(-c3ccc(Oc4ccccc4)cc3)c3c(N)ncnc31)CC2", "note": "(stereo not drawn) [Example 99, Ethyl 6-(4-amino-5-(4-phenoxyphenyl)-7H-pyrrolo[2,3-d]pyrimidin-7-yl)spiro[2.5]octane-1-carboxylate]", "IC50": "< 0.05"}]}]}
